The values that follow come from patent US20260337208A1, “HETEROCYCLIC DERIVATIVES AS JANUS KINASE INHIBITORS” (CHIESI FARMACEUTICI S.P.A., priority 2022, published 2026).

For one assay, the target named is JAK1 (Homo sapiens, UniProt P23458). Nature of the assay: Biochemical potency on JAK1, TR-FRET (LANCE Ultra kinase assay). Particulars: ATP corresponding to Km; cell-free; read-out: JAK1 inhibitory activity (pIC50) (converted). An outline of the steps: (§1)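 ULight-JAK-1 (Tyr1023) peptide phosphorylation at Km ATP, 1.5 h r.t.; substrate solution held peptide 30/50/20/10 nM and ATP 20/0.7/0.2/12 μM, enzyme solution 0.15/0.083/0.025/0.144 ng/μL (JAK1/JAK2/JAK3/TYK2). EDTA stop, Eu-PT66 antibody TR-FRET read at 665 nm; 11-point 5-fold dilutions from 20 μM; IC50 by variable-slope fit.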
(In general: TR-FRET usually uses a lanthanide donor and a delayed reading to cut background.)

For a further assay, the target named is JAK2 (Homo sapiens, UniProt O60674). Description: Biochemical potency on JAK2, TR-FRET (LANCE Ultra kinase assay). The following applies: ATP corresponding to Km; cell-free; read-out: JAK2 inhibitory activity (pIC50) (converted). Summed up: as §1
A further assay has as its target T1, JAK3 (Homo sapiens, UniProt P52333).
T1 sequence (P52333 1-1124): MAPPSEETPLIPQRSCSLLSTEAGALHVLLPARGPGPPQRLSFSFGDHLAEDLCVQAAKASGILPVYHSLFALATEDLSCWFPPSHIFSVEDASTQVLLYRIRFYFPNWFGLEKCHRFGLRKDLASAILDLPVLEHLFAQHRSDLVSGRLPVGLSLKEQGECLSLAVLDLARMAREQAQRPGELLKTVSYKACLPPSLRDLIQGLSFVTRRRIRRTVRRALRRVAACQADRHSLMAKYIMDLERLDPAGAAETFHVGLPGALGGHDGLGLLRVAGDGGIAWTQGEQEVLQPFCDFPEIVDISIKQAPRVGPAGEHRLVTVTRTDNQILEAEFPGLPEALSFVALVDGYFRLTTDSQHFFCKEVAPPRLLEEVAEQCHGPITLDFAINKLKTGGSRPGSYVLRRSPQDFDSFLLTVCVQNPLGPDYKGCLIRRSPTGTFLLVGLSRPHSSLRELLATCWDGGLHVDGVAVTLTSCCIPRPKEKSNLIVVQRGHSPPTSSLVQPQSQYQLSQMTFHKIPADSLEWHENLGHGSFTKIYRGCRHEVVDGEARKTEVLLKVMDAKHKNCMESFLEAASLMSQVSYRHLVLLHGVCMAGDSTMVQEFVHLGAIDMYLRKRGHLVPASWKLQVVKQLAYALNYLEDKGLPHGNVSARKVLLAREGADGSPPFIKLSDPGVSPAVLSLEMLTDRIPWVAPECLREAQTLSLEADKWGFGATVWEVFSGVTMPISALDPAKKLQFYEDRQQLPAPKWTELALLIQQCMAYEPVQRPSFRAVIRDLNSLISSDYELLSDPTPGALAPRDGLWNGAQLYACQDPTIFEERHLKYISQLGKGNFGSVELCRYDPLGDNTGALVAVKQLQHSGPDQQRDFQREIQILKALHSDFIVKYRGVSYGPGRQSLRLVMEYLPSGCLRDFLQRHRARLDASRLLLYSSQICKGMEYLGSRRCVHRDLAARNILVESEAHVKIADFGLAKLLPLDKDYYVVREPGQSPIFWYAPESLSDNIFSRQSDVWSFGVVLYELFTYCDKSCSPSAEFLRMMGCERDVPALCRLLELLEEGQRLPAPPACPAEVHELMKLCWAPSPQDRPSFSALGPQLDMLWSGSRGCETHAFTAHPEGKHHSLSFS
Nature of the assay: Biochemical potency on JAK3, TR-FRET (LANCE Ultra kinase assay). Particulars: ATP corresponding to Km; cell-free; read-out: JAK3 inhibitory activity (pIC50) (converted). Summed up: as §1

The target in a further assay is TYK2 (Homo sapiens, UniProt P29597). Nature of the assay: Biochemical potency on Tyk2, TR-FRET (LANCE Ultra kinase assay). Particulars: ATP corresponding to Km; cell-free; read-out: TYK2 inhibitory activity (pIC50) (converted). Summed up:
as §1

Assay [1] concerns pSTAT6 in BEAS-2B human cell line. Nature of the assay: Inhibition of IL-13 induced pSTAT6 in BEAS. It counts as cell-based. Particulars: for IC50: Homo sapiens, BEAS-2B, 0.5 h, IL-13 trigger, 30 min, parent compound; for Fold difference parent vs predicted acid metabolite: ratio=IC50 predicted acid metabolite/IC50 ester. An outline of the steps: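 BEAS-2B cells grown 48 h, pre-treated 30 min with compound, then stimulated 30 min with IL-13. Lysate pSTAT6 (Tyr641) measured by sandwich ELISA. Eleven 5-fold dilutions from 10 μM, in duplicate, fitted to IC50.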

Some results are limits rather than exact numbers.

TYK2, sequence (P29597 whole entry): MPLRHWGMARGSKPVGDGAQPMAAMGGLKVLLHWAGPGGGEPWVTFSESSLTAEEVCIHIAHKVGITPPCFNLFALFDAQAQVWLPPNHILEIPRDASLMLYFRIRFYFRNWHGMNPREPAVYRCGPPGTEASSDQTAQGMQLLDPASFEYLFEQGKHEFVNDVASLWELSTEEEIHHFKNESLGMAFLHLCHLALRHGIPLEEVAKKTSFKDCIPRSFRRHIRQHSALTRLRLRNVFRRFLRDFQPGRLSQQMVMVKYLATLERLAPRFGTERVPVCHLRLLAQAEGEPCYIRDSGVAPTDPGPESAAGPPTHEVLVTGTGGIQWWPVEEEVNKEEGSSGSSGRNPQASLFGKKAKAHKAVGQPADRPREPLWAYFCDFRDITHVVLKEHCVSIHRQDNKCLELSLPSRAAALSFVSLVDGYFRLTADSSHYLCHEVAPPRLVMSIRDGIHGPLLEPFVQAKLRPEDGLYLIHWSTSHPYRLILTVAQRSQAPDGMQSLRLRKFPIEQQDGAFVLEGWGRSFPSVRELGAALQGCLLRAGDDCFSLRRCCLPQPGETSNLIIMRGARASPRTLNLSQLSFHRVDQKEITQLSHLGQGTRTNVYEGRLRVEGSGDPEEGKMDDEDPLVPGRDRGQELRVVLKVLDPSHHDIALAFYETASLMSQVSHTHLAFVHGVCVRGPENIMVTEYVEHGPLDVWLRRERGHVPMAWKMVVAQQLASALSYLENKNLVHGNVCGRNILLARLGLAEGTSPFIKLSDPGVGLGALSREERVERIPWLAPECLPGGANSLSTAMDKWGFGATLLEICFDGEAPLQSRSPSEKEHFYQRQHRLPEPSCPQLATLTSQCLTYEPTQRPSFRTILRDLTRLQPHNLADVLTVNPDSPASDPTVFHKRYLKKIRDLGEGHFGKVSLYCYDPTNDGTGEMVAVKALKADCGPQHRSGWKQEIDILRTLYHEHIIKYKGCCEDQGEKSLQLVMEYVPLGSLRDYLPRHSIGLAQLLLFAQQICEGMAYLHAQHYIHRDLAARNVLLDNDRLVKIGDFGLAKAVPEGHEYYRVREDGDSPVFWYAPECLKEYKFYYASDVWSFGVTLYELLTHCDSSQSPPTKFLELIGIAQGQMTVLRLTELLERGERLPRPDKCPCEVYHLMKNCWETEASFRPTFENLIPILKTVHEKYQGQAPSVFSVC
JAK2, sequence (O60674 whole entry): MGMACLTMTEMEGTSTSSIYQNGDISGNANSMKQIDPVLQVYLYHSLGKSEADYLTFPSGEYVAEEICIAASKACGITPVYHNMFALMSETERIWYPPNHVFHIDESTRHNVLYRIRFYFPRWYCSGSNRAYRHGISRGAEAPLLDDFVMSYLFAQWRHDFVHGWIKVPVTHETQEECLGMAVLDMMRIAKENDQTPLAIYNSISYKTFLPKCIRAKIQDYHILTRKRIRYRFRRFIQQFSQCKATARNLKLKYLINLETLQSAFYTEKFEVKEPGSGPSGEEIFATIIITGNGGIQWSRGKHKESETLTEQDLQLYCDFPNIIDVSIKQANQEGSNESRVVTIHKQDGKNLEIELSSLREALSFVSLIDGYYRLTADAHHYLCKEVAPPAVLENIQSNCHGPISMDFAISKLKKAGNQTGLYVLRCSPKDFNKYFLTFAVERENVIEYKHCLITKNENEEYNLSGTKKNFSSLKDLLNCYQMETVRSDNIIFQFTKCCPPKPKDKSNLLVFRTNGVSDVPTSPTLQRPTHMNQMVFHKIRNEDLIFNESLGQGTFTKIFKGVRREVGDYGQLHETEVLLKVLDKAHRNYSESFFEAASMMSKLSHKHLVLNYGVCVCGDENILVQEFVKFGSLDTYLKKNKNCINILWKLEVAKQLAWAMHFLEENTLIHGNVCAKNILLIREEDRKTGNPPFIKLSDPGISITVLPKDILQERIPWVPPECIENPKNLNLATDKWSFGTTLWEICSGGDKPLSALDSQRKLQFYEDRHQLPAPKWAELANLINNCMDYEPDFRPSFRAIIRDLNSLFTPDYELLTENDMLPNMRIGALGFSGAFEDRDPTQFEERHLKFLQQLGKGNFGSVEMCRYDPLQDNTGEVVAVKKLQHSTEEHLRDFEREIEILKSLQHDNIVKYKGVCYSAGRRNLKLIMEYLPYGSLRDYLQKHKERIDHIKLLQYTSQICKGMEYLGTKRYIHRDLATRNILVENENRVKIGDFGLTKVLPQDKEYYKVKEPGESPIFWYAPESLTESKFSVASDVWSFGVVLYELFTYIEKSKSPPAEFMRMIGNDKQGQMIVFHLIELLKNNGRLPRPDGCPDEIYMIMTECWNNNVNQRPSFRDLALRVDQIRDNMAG
JAK1, sequence (P23458 whole entry): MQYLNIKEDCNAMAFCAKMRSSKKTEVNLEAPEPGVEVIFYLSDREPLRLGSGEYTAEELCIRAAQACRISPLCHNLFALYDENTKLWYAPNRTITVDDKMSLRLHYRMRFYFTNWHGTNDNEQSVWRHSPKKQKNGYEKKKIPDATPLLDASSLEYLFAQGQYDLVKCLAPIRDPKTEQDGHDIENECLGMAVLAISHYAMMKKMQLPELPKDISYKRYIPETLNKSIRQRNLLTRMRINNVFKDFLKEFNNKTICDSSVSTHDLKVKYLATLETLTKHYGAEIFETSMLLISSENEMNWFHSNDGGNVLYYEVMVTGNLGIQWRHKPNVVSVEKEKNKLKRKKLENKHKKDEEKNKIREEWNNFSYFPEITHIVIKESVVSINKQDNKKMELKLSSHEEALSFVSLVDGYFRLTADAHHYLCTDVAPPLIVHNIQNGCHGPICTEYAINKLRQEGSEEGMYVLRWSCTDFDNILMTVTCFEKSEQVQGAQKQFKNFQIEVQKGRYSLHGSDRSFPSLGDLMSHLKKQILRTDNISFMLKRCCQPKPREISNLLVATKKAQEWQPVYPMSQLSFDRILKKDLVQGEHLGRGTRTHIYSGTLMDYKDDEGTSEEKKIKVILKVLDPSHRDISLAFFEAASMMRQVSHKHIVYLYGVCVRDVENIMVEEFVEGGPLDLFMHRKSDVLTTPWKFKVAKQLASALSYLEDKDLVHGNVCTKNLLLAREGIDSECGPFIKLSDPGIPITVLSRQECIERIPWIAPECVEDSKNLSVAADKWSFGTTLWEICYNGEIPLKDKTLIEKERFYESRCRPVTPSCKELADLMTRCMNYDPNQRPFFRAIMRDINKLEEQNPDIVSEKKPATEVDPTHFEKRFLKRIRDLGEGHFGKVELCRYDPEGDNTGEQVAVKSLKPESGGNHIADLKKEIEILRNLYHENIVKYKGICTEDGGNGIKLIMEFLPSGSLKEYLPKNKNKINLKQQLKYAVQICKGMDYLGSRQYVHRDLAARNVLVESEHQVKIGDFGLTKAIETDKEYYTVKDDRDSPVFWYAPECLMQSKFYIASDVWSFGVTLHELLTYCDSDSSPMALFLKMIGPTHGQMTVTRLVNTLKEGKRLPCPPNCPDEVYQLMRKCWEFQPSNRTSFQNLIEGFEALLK

On to `COc1cc2c(cc1-n1nc(C(=O)NCCN3CCC(C(=O)OC4CC(C#N)C4)CC3)c3cnc(-c4cnn5cccnc45)cc31)OCCN2` (centres unmarked) [Example 47, 3-cyanocyclobutyl 1-(2-(1-(6-methoxy-3,4-dihydro-2H-benzo[b][1,4]oxazin-7-yl)-6-(pyrazolo[1,5-a]pyrimidin-3-yl)-1H-pyrazolo[4,3-c]pyridine-3-carboxamido)ethyl)piperidine-4-carboxylate], for which the IC50 was not above 5.01 nM at JAK1; not above 5.01 nM at JAK2; not above 5.01 nM at JAK3; 5.01 to 50.1 nM at TYK2; not above 5.01 nM in assay [1]. Moreover, the “Fold difference parent vs predicted acid metabolite” value in assay [1] is reported as “kkkk (ratio≥200)”.

With `COc1cc2c(cc1-n1nc(C(=O)NCCN3CCC(C(=O)O[C@@H]4CCN(C)C4)CC3)c3cnc(-c4cnn5cccnc45)cc31)OCCN2` [Example 23, (R)-1-methylpyrrolidin-3-yl 1-(2-(1-(6-methoxy-3,4-dihydro-2H-benzo[b][1,4]oxazin-7-yl)-6-(pyrazolo[1,5-a]pyrimidin-3-yl)-1H-pyrazolo[4,3-c]pyridine-3-carboxamido)ethyl)piperidine-4-carboxylate], the IC50 on JAK1 is not above 5.01 nM; on JAK2 it was not above 5.01 nM; at JAK3, not above 5.01 nM; at TYK2, 5.01 to 50.1 nM; in assay [1], 5.01 to 50.1 nM. Besides, in assay [1], the “Fold difference parent vs predicted acid metabolite” value is on record as “kkk (200>ratio≥100)”.

As to `COc1cc2c(cc1-n1nc(C(=O)NCCN3CCC(C(=O)OCC(C)(C)C#N)CC3)c3cnc(-c4cnn5cccnc45)cc31)OCCN2` [Example 25, 2-cyano-2-methylpropyl 1-(2-(1-(6-methoxy-3,4-dihydro-2H-benzo[b][1,4]oxazin-7-yl)-6-(pyrazolo[1,5-a]pyrimidin-3-yl)-1H-pyrazolo[4,3-c]pyridine-3-carboxamido)ethyl)piperidine-4-carboxylate], the IC50 was not above 5.01 nM on JAK1; not above 5.01 nM on JAK2; not above 5.01 nM at JAK3; 5.01 to 50.1 nM on TYK2; not above 5.01 nM in assay [1]. The “Fold difference parent vs predicted acid metabolite” value in assay [1] is on record as “kkkk (ratio≥200)”.

With `COc1cc2c(cc1-n1nc(C(=O)OCCCN3CCN(C)CC3)c3cnc(-c4cnn5cccnc45)cc31)SCCN2` [Example 8, 3-(4-methylpiperazin-1-yl)propyl 1-(6-methoxy-3,4-dihydro-2H-benzo[b][1,4]thiazin-7-yl)-6-(pyrazolo[1,5-a]pyrimidin-3-yl)-1H-pyrazolo[4,3-c]pyridine-3-carboxylate], the IC50 was not above 5.01 nM at JAK1; not above 5.01 nM at JAK2; not above 5.01 nM at JAK3; not above 5.01 nM on TYK2; 5.01 to 50.1 nM in assay [1].

On to `COc1cc2c(cc1-n1nc(C(=O)NCCN3CCC(C(=O)OC4CCN(C)C4)CC3)c3cnc(-c4cnn5cccnc45)cc31)OCCN2` (centres unmarked) [Example 22, 1-methylpyrrolidin-3-yl 1-(2-(1-(6-methoxy-3,4-dihydro-2H-benzo[b][1,4]oxazin-7-yl)-6-(pyrazolo[1,5-a]pyrimidin-3-yl)-1H-pyrazolo[4,3-c]pyridine-3-carboxamido)ethyl)piperidine-4-carboxylate], for which the IC50 at JAK1 was 5.01 to 50.1 nM; on JAK2, not above 5.01 nM; at JAK3, not above 5.01 nM; on TYK2 it was 5.01 to 50.1 nM; in assay [1] it was 5.01 to 50.1 nM. For the same compound, the “Fold difference parent vs predicted acid metabolite” value in assay [1] is on record as “kkk (200>ratio≥100)”.

In the case of `CCOC(=O)COC(=O)Nc1nn(-c2cc3c(cc2OC)NCCS3)c2cc(-c3cnn4cccnc34)ncc12` [Example 3, ethyl 2-(((1-(6-methoxy-3,4-dihydro-2H-benzo[b][1,4]thiazin-7-yl)-6-(pyrazolo[1,5-a]pyrimidin-3-yl)-1H-pyrazolo[4,3-c]pyridin-3-yl)carbamoyl)oxy)acetate], the IC50 on JAK1 is not above 5.01 nM; at JAK2, not above 5.01 nM; at JAK3 it was not above 5.01 nM; at TYK2, 5.01 to 50.1 nM; in assay [1] it was not above 5.01 nM. For the same compound, the “Fold difference parent vs predicted acid metabolite” value in assay [1] is given as “kkkk (ratio≥200)”.

With `COc1cc2c(cc1-n1nc(C(=O)NCCN3CCC(C(=O)O[C@H]4CCN(C)C4)CC3)c3cnc(-c4cnn5cccnc45)cc31)OCCN2` [Example 24, (S)-1-methylpyrrolidin-3-yl 1-(2-(1-(6-methoxy-3,4-dihydro-2H-benzo[b][1,4]oxazin-7-yl)-6-(pyrazolo[1,5-a]pyrimidin-3-yl)-1H-pyrazolo[4,3-c]pyridine-3-carboxamido)ethyl)piperidine-4-carboxylate], the IC50 at JAK1 is not above 5.01 nM; on JAK2 it was not above 5.01 nM; at JAK3 it was not above 5.01 nM; at TYK2, 5.01 to 50.1 nM; in assay [1], 5.01 to 50.1 nM. For the same compound, the “Fold difference parent vs predicted acid metabolite” value in assay [1] was “kkk (200>ratio≥100)”.

`CCOC(=O)C1(F)CCN(CCNC(=O)c2nn(-c3cc4c(cc3OC)NCCO4)c3cc(-c4cnn5cccnc45)ncc23)CC1` [Example 28, ethyl 4-fluoro-1-(2-(1-(6-methoxy-3,4-dihydro-2H-benzo[b][1,4]oxazin-7-yl)-6-(pyrazolo[1,5-a]pyrimidin-3-yl)-1H-pyrazolo[4,3-c]pyridine-3-carboxamido)ethyl)piperidine-4-carboxylate]: the IC50 at JAK1 is not above 5.01 nM; on JAK2, not above 5.01 nM; on JAK3, not above 5.01 nM; at TYK2 it was 5.01 to 50.1 nM; in assay [1] it was 5.01 to 50.1 nM.

For `CCOC(=O)C1CCN(CCNC(=O)c2nn(-c3cc4c(cc3OC)NCCS4)c3cc(-c4cnn5cccnc45)ncc23)CC1` [Example 1, ethyl 1-(2-(1-(6-methoxy-3,4-dihydro-2H-benzo[b][1,4]thiazin-7-yl)-6-(pyrazolo[1,5-a]pyrimidin-3-yl)-1H-pyrazolo[4,3-c]pyridine-3-carboxamido)ethyl)piperidine-4-carboxylate], the IC50 (on JAK1; at JAK2; on JAK3; at TYK2; in assay [1]) was not above 5.01 nM each time. Besides, in assay [1], the “Fold difference parent vs predicted acid metabolite” value is given as “kk (100>ratio≥10)”.

`CCOC(=O)C1CN(CCNC(=O)c2nn(-c3cc4c(cc3OC)NCCO4)c3cc(-c4cnn5cccnc45)ncc23)CCN1C` (centres unmarked) [Example 36, ethyl 4-(2-(1-(6-methoxy-3,4-dihydro-2H-benzo[b][1,4]oxazin-7-yl)-6-(pyrazolo[1,5-a]pyrimidin-3-yl)-1H-pyrazolo[4,3-c]pyridine-3-carboxamido)ethyl)-1-methylpiperazine-2-carboxylate]: the IC50 at JAK1 was not above 5.01 nM; on JAK2 it was 5.01 to 50.1 nM; at JAK3, not above 5.01 nM; on TYK2, 5.01 to 50.1 nM; in assay [1], 5.01 to 50.1 nM.

For the compound `CCOC(=O)C1(C)CCN(CCNC(=O)c2nn(-c3cc4c(cc3OC)NCCO4)c3cc(-c4cnn5cccnc45)ncc23)CC1` [Example 34, ethyl 1-(2-(1-(6-methoxy-3,4-dihydro-2H-benzo[b][1,4]oxazin-7-yl)-6-(pyrazolo[1,5-a]pyrimidin-3-yl)-1H-pyrazolo[4,3-c]pyridine-3-carboxamido)ethyl)-4-methylpiperidine-4-carboxylate], the IC50 at JAK1 was not above 5.01 nM; on JAK2, not above 5.01 nM; at JAK3, not above 5.01 nM; at TYK2, 5.01 to 50.1 nM; in assay [1] it was 5.01 to 50.1 nM.
